Key:
barnyardgrass [1] = test: Test A pre-/postemergence herbicide test; type: in vivo, Echinochloa crus-galli; details: for Plant response rating, Barnyardgrass: 0 to 100 scale
Summary of the method: (§1)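 Scoring was visual, relative to untreated controls, on a 0–100 scale after about 10 greenhouse days. Preemergence treatment used a directed soil spray over seeded loam/sand; postemergence treatment targeted one- to two-leaf plants of 2–10 cm.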

kochia = test: Test A pre-/postemergence herbicide test; type: in vivo, Kochia scoparia; details: for Plant response rating, Kochia: 0 to 100 scale
Summary of the method: as §1

ragweed = test: Test A pre-/postemergence herbicide test; type: in vivo, Ambrosia elatior; details: for Plant response rating, Ragweed: 0 to 100 scale
Summary of the method: as §1

ryegrass, Italian = test: Test A pre-/postemergence herbicide test; type: in vivo, Lolium multiflorum; details: for Plant response rating, Ryegrass, Italian: 0 to 100 scale
Summary of the method: as §1

giant foxtail = test: Test A pre-/postemergence herbicide test; type: in vivo, Setaria faberii; details: for Plant response rating, Foxtail, Giant: 0 to 100 scale
Summary of the method: as §1

pigweed = test: Test A pre-/postemergence herbicide test; type: in vivo, Amaranthus retroflexus; details: for Plant response rating, Pigweed: 0 to 100 scale
Summary of the method: as §1

wheat = test: Test A pre-/postemergence herbicide test; type: in vivo, Triticum aestivum; details: Postemergence
Summary of the method: as §1

corn = test: Test A pre-/postemergence herbicide test; type: in vivo, Zea mays; details: Postemergence
Summary of the method: as §1

blackgrass = test: Test A postemergence herbicide test; type: in vivo, Alopecurus myosuroides
Summary of the method: (§2)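 Plants at the one- to two-leaf stage, 2–10 cm tall, grown in loam/sand pots, received postemergence sprays of the test chemicals. After about 10 days in the greenhouse, injury was scored visually against untreated controls on a 0–100 scale (0 none, 100 complete control).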

galium = test: Test A postemergence herbicide test; type: in vivo, Galium aparine
Summary of the method: as §2

rice [2] = test: Test B flooded paddy test; type: in vivo, Oryza sativa; details: 1000 g ai/ha, Flood; scale of 0 to 100 where 0 is no effect and 100 is complete control
Summary of the method: (§3)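 Plants were grown to the 2-leaf stage, then pots were flooded to 3 cm above the soil and compound was applied directly into the paddy water, with that depth held throughout. After 13 to 15 days in a greenhouse, injury was rated visually against untreated controls on a 0 to 100 scale (100 = complete control).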

sedge, umbrella [3] = test: Test B flooded paddy test; type: in vivo, Cyperus difformis; details: 1000 g ai/ha, Flood; scale of 0 to 100 where 0 is no effect and 100 is complete control
Summary of the method: as §3

ducksalad [4] = test: Test B flooded paddy test; type: in vivo, Heteranthera limosa; details: 1000 g ai/ha, Flood; scale of 0 to 100 where 0 is no effect and 100 is complete control
Summary of the method: as §3

barnyardgrass [5] = test: Test B flooded paddy test; type: in vivo, Echinochloa crus-galli; details: 1000 g ai/ha, Flood; scale of 0 to 100 where 0 is no effect and 100 is complete control
Summary of the method: as §3

rice [6] = test: Test C flooded paddy test; type: in vivo, Oryza sativa; details: Flood
Summary of the method: (§4)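 2-leaf stage; flood 3 cm over soil; compound into paddy water; depth held; greenhouse 13–15 d; visual % control vs untreated (0 = none, 100 = complete); "-" = not tested.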

sedge, umbrella [7] = test: Test C flooded paddy test; type: in vivo, Cyperus difformis; details: Flood
Summary of the method: as §4

ducksalad [8] = test: Test C flooded paddy test; type: in vivo, Heteranthera limosa; details: Flood
Summary of the method: as §4

barnyardgrass [9] = test: Test C flooded paddy test; type: in vivo, Echinochloa crus-galli; details: Flood
Summary of the method: as §4

[10] = 125 g ai/ha, visual rating, 0 no effect, 100 complete control, approximately 10 days, preemergence
[11] = Postemergence, 125 g ai/ha, 0 is no effect, 100 is complete control
[12] = preemergence, 500 g ai/ha, 0 is no effect and 100 is complete control
[13] = 125 g ai/ha, 0 to 100 scale, 0 is no effect, 100 is complete control
[14] = 125 g ai/ha, scale of 0 to 100 where 0 is no effect and 100 is complete control, 13 to 15 days
[15] = 250 g ai/ha, scale of 0 to 100 where 0 is no effect and 100 is complete control, 13 to 15 days

Which “Plant response rating, Barnyardgrass” value (barnyardgrass [1]; [10]) does the source give for `CC(C)(C)c1cccc(C2CNC(=O)C2C(=O)Nc2cccc(F)c2F)c1` (racemic) [Compound 200] here?
Its value is 60.

What about the “Plant response rating, Barnyardgrass” value (barnyardgrass [1]; [11]) of the same molecule?
The value was 70.

What about the “Barnyardgrass plant response rating (0 to 100 scale, 0 is no effect, 100 is complete control)” value (barnyardgrass [1]; Postemergence, 500 g ai/ha) of the same molecule?
Its value is 90.

What about the “Plant response rating, Barnyardgrass” value (barnyardgrass [1]; [12]) of the same molecule?
Its value is 90.

And the “Plant response rating, Kochia” value (kochia; [10])?
The value was 0.

And the “Plant response rating, Kochia” value (kochia; [11])?
Its value is 0.

What about the “Kochia plant response rating (0 to 100 scale, 0 is no effect, 100 is complete control)” value (kochia; Postemergence, 500 g ai/ha) of the same molecule?
Its value is 0.

What about the “Plant response rating, Kochia” value (kochia; [12]) of the same molecule?
The value was 0.

What about the “Plant response rating, Ragweed” value (ragweed; [10]) of the same molecule?
The value was 0.

And the “Plant response rating, Ragweed” value (ragweed; [11])?
Its value is 0.

And the “Ragweed plant response rating (0 to 100 scale, 0 is no effect, 100 is complete control)” value (ragweed; Postemergence, 500 g ai/ha)?
Its value is 0.

What about the “Plant response rating, Ragweed” value (ragweed; [12]) of the same molecule?
The value was 0.

And the “Plant response rating, Ryegrass, Italian” value (ryegrass, Italian; [10])?
The value was 0.

And the “Plant response rating, Ryegrass, Italian” value (ryegrass, Italian; [11])?
The value was 0.

What about the “Ryegrass, Italian plant response rating (0 to 100 scale, 0 is no effect, 100 is complete control)” value (ryegrass, Italian; Postemergence, 500 g ai/ha) of the same molecule?
Its value is 0.

What about the “Plant response rating, Ryegrass, Italian” value (ryegrass, Italian; [12]) of the same molecule?
The value was 0.

And the “Plant response rating, Foxtail, Giant” value (giant foxtail; [10])?
Its value is 30.

What about the “Plant response rating, Foxtail, Giant” value (giant foxtail; [11]) of the same molecule?
The value was 20.

What about the “Foxtail, Giant plant response rating (0 to 100 scale, 0 is no effect, 100 is complete control)” value (giant foxtail; Postemergence, 500 g ai/ha) of the same molecule?
The value was 40.

What about the “Plant response rating, Foxtail, Giant” value (giant foxtail; [12]) of the same molecule?
The value was 80.

What about the “Plant response rating, Pigweed” value (pigweed; [10]) of the same molecule?
Its value is 0.

And the “Plant response rating, Pigweed” value (pigweed; [11])?
The value was 0.

And the “Pigweed plant response rating (0 to 100 scale, 0 is no effect, 100 is complete control)” value (pigweed; Postemergence, 500 g ai/ha)?
Its value is 0.

And the “Plant response rating, Pigweed” value (pigweed; [12])?
Its value is 0.

And the “Plant response rating, Wheat” value (wheat; [13])?
Its value is 0.

What about the “Wheat plant response rating (0 to 100 scale, 0 is no effect, 100 is complete control)” value (wheat; 500 g ai/ha) of the same molecule?
Its value is 20.

And the “Plant response rating, Corn” value (corn; [13])?
The value was 0.

And the “Corn plant response rating (0 to 100 scale, 0 is no effect, 100 is complete control)” value (corn; 500 g ai/ha)?
The value was 20.

What about the “Plant response rating, Blackgrass” value (blackgrass; [13]) of the same molecule?
Its value is 0.

What about the “Blackgrass plant response rating (0 to 100 scale, 0 is no effect, 100 is complete control)” value (blackgrass; 500 g ai/ha) of the same molecule?
Its value is 0.

What about the “Plant response rating, Galium” value (galium; [13]) of the same molecule?
The value was 0.

And the “Galium plant response rating (0 to 100 scale, 0 is no effect, 100 is complete control)” value (galium; 500 g ai/ha)?
Its value is 0.

And the “Plant response rating, Rice” value (rice [2])?
Its value is 15.

And the “Plant response rating, Sedge, Umbrella” value (sedge, umbrella [3])?
The value was 0.

And the “Plant response rating, Ducksalad” value (ducksalad [4])?
Its value is 95.

What about the “Plant response rating, Barnyardgrass” value (barnyardgrass [5]) of the same molecule?
The value was 85.

What about the “Plant response rating, Rice” value (rice [6]; [14]) of the same molecule?
Its value is 0.

And the “Plant response rating, Rice” value (rice [6]; [15])?
The value was 0.

And the “Plant response rating, Rice” value (rice [6]; 500 g ai/ha, scale 0 to 100)?
Its value is 0.

And the “Plant response rating, Rice” value (rice [6]; 1000 g ai/ha, scale 0 to 100)?
The value was 0.

What about the “Plant response rating, Sedge, Umbrella” value (sedge, umbrella [7]; [14]) of the same molecule?
Its value is 0.

What about the “Plant response rating, Sedge, Umbrella” value (sedge, umbrella [7]; [15]) of the same molecule?
The value was 0.

And the “Plant response rating, Sedge, Umbrella” value (sedge, umbrella [7]; 500 g ai/ha, scale 0 to 100)?
The value was 0.

And the “Plant response rating, Sedge, Umbrella” value (sedge, umbrella [7]; 1000 g ai/ha, scale 0 to 100)?
Its value is 0.

What about the “Plant response rating, Ducksalad” value (ducksalad [8]; [14]) of the same molecule?
The value was 70.

What about the “Plant response rating, Ducksalad” value (ducksalad [8]; [15]) of the same molecule?
Its value is 70.

What about the “Plant response rating, Ducksalad” value (ducksalad [8]; 500 g ai/ha, scale 0 to 100) of the same molecule?
The value was 100.

And the “Plant response rating, Ducksalad” value (ducksalad [8]; 1000 g ai/ha, scale 0 to 100)?
Its value is 100.

And the “Plant response rating, Barnyardgrass” value (barnyardgrass [9]; [14])?
The value was 15.

What about the “Plant response rating, Barnyardgrass” value (barnyardgrass [9]; [15]) of the same molecule?
The value was 25.

And the “Plant response rating, Barnyardgrass” value (barnyardgrass [9]; 500 g ai/ha, scale 0 to 100)?
The value was 40.

And the “Plant response rating, Barnyardgrass” value (barnyardgrass [9]; 1000 g ai/ha, scale 0 to 100)?
Its value is 55.

Reference: US10294202B2, “Pyrrolidinones as herbicides” (FMC Corporation, priority 2013, dated 2019)
